Test results published in paper PMC5218480 (PLoS ONE, 2017).

Tested on: MV-4-11 cells
Test: Gene expression microarray analysis (Affymetrix PrimeView) and GSEA
Assay type: cell-based, human
Design: RFU PODN (11730768_x_at) / Fold change /veh PODN (11730768_x_at) / RFU LINC00158 (11744669_a_at) / Fold change /veh LINC00158 (11744669_a_at) / RFU DUSP10 (11751237_a_at) / Fold change /veh DUSP10 (11751237_a_at) / RFU ID3 (11757404_x_at) / Fold change /veh ID3 (11757404_x_at) / RFU PLEKHG5 (11737974_s_at) / Fold change /veh PLEKHG5 (11737974_s_at) / RFU LRRC4B (11730491_at) / Fold change /veh LRRC4B (11730491_at) / RFU GIMAP4 (11747438_a_at) / Fold change /veh GIMAP4 (11747438_a_at) / RFU KRT8 (11758183_x_at) / Fold change /veh KRT8 (11758183_x_at) / RFU CNN1 (11734310_a_at) / Fold change /veh CNN1 (11734310_a_at) / RFU VPS37D (11726825_at) / Fold change /veh VPS37D (11726825_at) / RFU C10orf10 (11716522_x_at) / Fold change /veh C10orf10 (11716522_x_at) / RFU KIR2DL2 /// KIR2DL4 /// KIR2DL5A /// KIR2DL5B /// KIR2DS1 /// KIR2DS2 /// KIR2DS3 /// KIR2DS4 /// KIR3DL3 /// KIR3DL3 /// KIR3DS1 (11738374_at) / Fold change /veh KIR2DL2 /// KIR2DL4 /// KIR2DL5A /// KIR2DL5B /// KIR2DS1 /// KIR2DS2 /// KIR2DS3 /// KIR2DS4 /// KIR3DL3 /// KIR3DL3 /// KIR3DS1 (11738374_at) / RFU C1QL1 (11718748_at) / Fold change /veh C1QL1 (11718748_at) / RFU TMPRSS4 (11747572_a_at) / Fold change /veh TMPRSS4 (11747572_a_at) / RFU HAMP (11756126_x_at) / Fold change /veh HAMP (11756126_x_at) / RFU RNFT2 (11725882_a_at) / Fold change /veh RNFT2 (11725882_a_at) / RFU NR4A2 (11747474_a_at) / Fold change /veh NR4A2 (11747474_a_at) / RFU ABCC12 (11746883_a_at) / Fold change /veh ABCC12 (11746883_a_at) / RFU TMEM136 (11760407_x_at) / Fold change /veh TMEM136 (11760407_x_at) / RFU CLDN22 /// WWC2 (11732394_at) / Fold change /veh CLDN22 /// WWC2 (11732394_at) / RFU HLA-DPB1 (11760878_x_at) / Fold change /veh HLA-DPB1 (11760878_x_at) / RFU SPINT1 (11716480_a_at) / Fold change /veh SPINT1 (11716480_a_at) / RFU GAP43 (11754022_s_at) / Fold change /veh GAP43 (11754022_s_at) / RFU A4GNT (11735810_at) / Fold change /veh A4GNT (11735810_at) / RFU PRB3 (11715151_x_at) / Fold change /veh PRB3 (11715151_x_at) / RFU TUBB4B (11761932_at) / Fold change /veh TUBB4B (11761932_at) / RFU CAPN14 (11732068_a_at) / Fold change /veh CAPN14 (11732068_a_at) / RFU TMCC2 (11721928_a_at) / Fold change /veh TMCC2 (11721928_a_at) / RFU IRGQ (11745062_a_at) / Fold change /veh IRGQ (11745062_a_at) / RFU FAM174B (11720279_a_at) / Fold change /veh FAM174B (11720279_a_at) / RFU TMPRSS4 (11748680_a_at) / Fold change /veh TMPRSS4 (11748680_a_at) / RFU FAM212B (11763350_a_at) / Fold change /veh FAM212B (11763350_a_at) / RFU PLEKHG5 (11743358_a_at) / Fold change /veh PLEKHG5 (11743358_a_at) / RFU ZSCAN30 (11745921_a_at) / Fold change /veh ZSCAN30 (11745921_a_at) / RFU CMKLR1 (11741424_a_at) / Fold change /veh CMKLR1 (11741424_a_at) / RFU LOC101060620 /// MAPK8IP1 (11723275_at) / Fold change /veh LOC101060620 /// MAPK8IP1 (11723275_at) / RFU SPTSSB (11747773_x_at) / Fold change /veh SPTSSB (11747773_x_at) / RFU PRSS12 (11739890_at) / Fold change /veh PRSS12 (11739890_at) / RFU BIN1 (11741810_x_at) / Fold change /veh BIN1 (11741810_x_at) / RFU WNT11 (11732464_a_at) / Fold change /veh WNT11 (11732464_a_at) / RFU C10orf10 (11716521_a_at) / Fold change /veh C10orf10 (11716521_a_at) / RFU C5orf56 (11738089_at) / Fold change /veh C5orf56 (11738089_at) / RFU CYB561 (11721691_x_at) / Fold change /veh CYB561 (11721691_x_at) / RFU ANKRD19P (11752326_a_at) / Fold change /veh ANKRD19P (11752326_a_at) / RFU OR2T12 /// OR2T33 /// OR2T8 (11738714_s_at) / Fold change /veh OR2T12 /// OR2T33 /// OR2T8 (11738714_s_at) / RFU VCAN (11748164_a_at) / Fold change /veh VCAN (11748164_a_at) / RFU JSRP1 (11732532_at) / Fold change /veh JSRP1 (11732532_at) / RFU KRTAP10-11 (11738290_x_at) / Fold change /veh KRTAP10-11 (11738290_x_at) / RFU MYO3A (11730013_a_at) / Fold change /veh MYO3A (11730013_a_at) / RFU EBF3 (11725865_a_at) / Fold change /veh EBF3 (11725865_a_at) / RFU CAMK2N1 (11719241_x_at) / Fold change /veh CAMK2N1 (11719241_x_at) / RFU C5orf56 (11738088_a_at) / Fold change /veh C5orf56 (11738088_a_at) / RFU OLFML3 (11715873_a_at) / Fold change /veh OLFML3 (11715873_a_at) / RFU LOC100653217 /// NTM (11731650_a_at) / Fold change /veh LOC100653217 /// NTM (11731650_a_at) / RFU MAPK11 (11762145_a_at) / Fold change /veh MAPK11 (11762145_a_at) / RFU FIZ1 (11724087_x_at) / Fold change /veh FIZ1 (11724087_x_at) / RFU OASL (11726364_x_at) / Fold change /veh OASL (11726364_x_at) / RFU SOX15 (11748057_x_at) / Fold change /veh SOX15 (11748057_x_at) / RFU CD79A (11719716_a_at) / Fold change /veh CD79A (11719716_a_at) / RFU HIST1H1D (11736915_at) / Fold change /veh HIST1H1D (11736915_at) / RFU CASKIN2 (11723855_a_at) / Fold change /veh CASKIN2 (11723855_a_at) / RFU LOC730098 (11760151_x_at) / Fold change /veh LOC730098 (11760151_x_at) / RFU OR4N2 (11742367_at) / Fold change /veh OR4N2 (11742367_at) / RFU PRRT2 (11749266_a_at) / Fold change /veh PRRT2 (11749266_a_at) / RFU SNX32 (11753110_a_at) / Fold change /veh SNX32 (11753110_a_at) / RFU CDHR5 (11726645_a_at) / Fold change /veh CDHR5 (11726645_a_at) / RFU RCAN1 (11760418_a_at) / Fold change /veh RCAN1 (11760418_a_at) / RFU FAM167A (11723789_a_at) / Fold change /veh FAM167A (11723789_a_at) / RFU FAM26E (11764081_at) / Fold change /veh FAM26E (11764081_at) / RFU ISYNA1 (11749810_s_at) / Fold change /veh ISYNA1 (11749810_s_at) / RFU ACY1 (11761880_at) / Fold change /veh ACY1 (11761880_at) / RFU 11764098_at / Fold change /veh 11764098_at / RFU SAMD14 (11745864_x_at) / Fold change /veh SAMD14 (11745864_x_at) / RFU NPB (11741838_a_at) / Fold change /veh NPB (11741838_a_at) / RFU TMPRSS6 (11731388_a_at) / Fold change /veh TMPRSS6 (11731388_a_at) / RFU KRTAP10-2 (11738614_at) / Fold change /veh KRTAP10-2 (11738614_at) / RFU ARHGAP8 /// PRR5-ARHGAP8 (11727945_x_at) / Fold change /veh ARHGAP8 /// PRR5-ARHGAP8 (11727945_x_at) / RFU KRTAP5-7 /// NADSYN1 (11734609_at) / Fold change /veh KRTAP5-7 /// NADSYN1 (11734609_at) / RFU RASL12 (11751679_a_at) / Fold change /veh RASL12 (11751679_a_at) / RFU CDKN2B (11736163_a_at) / Fold change /veh CDKN2B (11736163_a_at) / RFU PRF1 (11729649_at) / Fold change /veh PRF1 (11729649_at) / RFU, ZNF638 /// ZNF638-IT1 / Fold change vs veh, ZNF638 /// ZNF638-IT1 / RFU, PANK3 / Fold change vs veh, PANK3 / RFU, SH3YL1 / Fold change vs veh, SH3YL1 / RFU, ZEB2 / Fold change vs veh, ZEB2 / RFU, NRIP1 / Fold change vs veh, NRIP1 / RFU, PTTG1IP / Fold change vs veh, PTTG1IP / RFU, CAPN2 / Fold change vs veh, CAPN2 / RFU, MED14 / Fold change vs veh, MED14 / RFU, SNORA58 / Fold change vs veh, SNORA58 / RFU, C1orf63 / Fold change vs veh, C1orf63 / RFU, LRRFIP1 / Fold change vs veh, LRRFIP1 / RFU, NDUFAF7 / Fold change vs veh, NDUFAF7 / RFU, SLC12A2 / Fold change vs veh, SLC12A2 / RFU, IBTK / Fold change vs veh, IBTK / RFU, ESF1 / Fold change vs veh, ESF1 / Fold change vs veh, TMEM50B / RFU, TAOK1 / Fold change vs veh, TAOK1 / RFU, ACBD3 / Fold change vs veh, ACBD3 / RFU, TMA16 / Fold change vs veh, TMA16 / RFU, RWDD3 / Fold change vs veh, RWDD3 / RFU, BCAT1 / Fold change vs veh, BCAT1 / RFU, EDEM3 / Fold change vs veh, EDEM3 / RFU, TMEM33 / Fold change vs veh, TMEM33 / RFU, WDR75 / Fold change vs veh, WDR75 / RFU, AHCTF1 / Fold change vs veh, AHCTF1 / RFU, TFRC / Fold change vs veh, TFRC / RFU, ZDHHC17 / Fold change vs veh, ZDHHC17 / RFU, NOM1 / Fold change vs veh, NOM1 / RFU, ARL8B / Fold change vs veh, ARL8B / RFU, ZBTB11 / Fold change vs veh, ZBTB11 / RFU, TAMM41 / Fold change vs veh, TAMM41 / RFU, KIAA1704 /// LOC100996395 / Fold change vs veh, KIAA1704 /// LOC100996395 / RFU, ING1 / Fold change vs veh, ING1 / RFU, TRMT61B / Fold change vs veh, TRMT61B / RFU, FUBP3 / Fold change vs veh, FUBP3 / RFU, TP53 / Fold change vs veh, TP53 / RFU, TNKS2 / Fold change vs veh, TNKS2 / RFU, ZFP14 / Fold change vs veh, ZFP14 / RFU, ACTR2 / Fold change vs veh, ACTR2 / RFU, PPP3R1 / Fold change vs veh, PPP3R1 / RFU, PIK3R1 / Fold change vs veh, PIK3R1 / RFU, HNRNPA1 / Fold change vs veh, HNRNPA1 / RFU, RNF170 / Fold change vs veh, RNF170 / RFU, ZNF28 / Fold change vs veh, ZNF28 / RFU, RNGTT / Fold change vs veh, RNGTT / RFU, OGT / Fold change vs veh, OGT / RFU, BRD1 / Fold change vs veh, BRD1 / RFU, MARS / Fold change vs veh, MARS / RFU, ZNF655 / Fold change vs veh, ZNF655 / RFU, FAHD1 / Fold change vs veh, FAHD1 / RFU, BDP1 / Fold change vs veh, BDP1 / RFU, LRRCC1 / Fold change vs veh, LRRCC1 / RFU, ARID1A / Fold change vs veh, ARID1A / RFU, ZNF146 / Fold change vs veh, ZNF146 / RFU, ZNF330 / Fold change vs veh, ZNF330 / RFU, GPN3 / Fold change vs veh, GPN3 / RFU, C9orf123 / Fold change vs veh, C9orf123 / RFU, N4BP2L2 / Fold change vs veh, N4BP2L2 / RFU, ARFIP1 / Fold change vs veh, ARFIP1 / RFU, FAM179B / Fold change vs veh, FAM179B / RFU, BCL10 / Fold change vs veh, BCL10 / RFU, UHRF1BP1L / Fold change vs veh, UHRF1BP1L / RFU, BET1 / Fold change vs veh, BET1 / RFU, CNOT2 / Fold change vs veh, CNOT2 / RFU, ZNF268 / Fold change vs veh, ZNF268 / Fold change vs veh, ZNF507 / RFU, DGCR2 / Fold change vs veh, DGCR2 / RFU, WDSUB1 / Fold change vs veh, WDSUB1 / Fold change vs veh, HSP90B1 /// MIR3652 / RFU, ADSS / Fold change vs veh, ADSS / RFU, GK / Fold change vs veh, GK / RFU, ZNF148 / Fold change vs veh, ZNF148 / RFU, TAF9 / Fold change vs veh, TAF9 / RFU, SLC1A5 / Fold change vs veh, SLC1A5 / RFU, SLMO2 / Fold change vs veh, SLMO2 / RFU, ABCC4 / Fold change vs veh, ABCC4 / RFU, LOC101060439 /// RAP1B / Fold change vs veh, LOC101060439 /// RAP1B / RFU, RFX7 / Fold change vs veh, RFX7 / RFU, GTPBP10 / Fold change vs veh, GTPBP10 / RFU, CNEP1R1 / Fold change vs veh, CNEP1R1 / RFU, BIVM-ERCC5 /// ERCC5 / Fold change vs veh, BIVM-ERCC5 /// ERCC5 / RFU, ILF3 / Fold change vs veh, ILF3 / RFU 11762660_at / Fold change /veh 11762660_at / RFU VCAN (11757783_s_at) / Fold change /veh VCAN (11757783_s_at) / RFU DDX43 (11728927_at) / Fold change /veh DDX43 (11728927_at) / RFU KRT8 (11758188_x_at) / Fold change /veh KRT8 (11758188_x_at) / RFU NKD1 (11759106_at) / Fold change /veh NKD1 (11759106_at) / RFU SRD5A1 (11742802_a_at) / Fold change /veh SRD5A1 (11742802_a_at) / RFU TPSAB1 /// TPSB2 (11721975_s_at) / Fold change /veh TPSAB1 /// TPSB2 (11721975_s_at) / RFU GSTM3 (11746129_a_at) / Fold change /veh GSTM3 (11746129_a_at) / RFU IL23R (11737362_x_at) / Fold change /veh IL23R (11737362_x_at) / RFU TMEM51 (11727254_a_at) / Fold change /veh TMEM51 (11727254_a_at) / RFU PIWIL2 (11732686_x_at) / Fold change /veh PIWIL2 (11732686_x_at) / RFU ORM1 (11744905_x_at) / Fold change /veh ORM1 (11744905_x_at) / RFU CCDC152 (11743942_at) / Fold change /veh CCDC152 (11743942_at) / RFU ECM1 (11717891_a_at) / Fold change /veh ECM1 (11717891_a_at) / RFU IL23R (11748794_a_at) / Fold change /veh IL23R (11748794_a_at) / RFU TNFAIP8L3 (11732012_x_at) / Fold change /veh TNFAIP8L3 (11732012_x_at) / RFU MBOAT4 (11741988_at) / Fold change /veh MBOAT4 (11741988_at) / RFU 11764193_at / Fold change /veh 11764193_at / RFU TMEM53 (11763286_at) / Fold change /veh TMEM53 (11763286_at) / RFU MAGEB2 (11727129_at) / Fold change /veh MAGEB2 (11727129_at) / RFU TMEM200A (11744735_a_at) / Fold change /veh TMEM200A (11744735_a_at) / RFU CCDC152 (11751479_a_at) / Fold change /veh CCDC152 (11751479_a_at) / RFU FAM211A (11726209_a_at) / Fold change /veh FAM211A (11726209_a_at) / RFU RGS16 (11746705_a_at) / Fold change /veh RGS16 (11746705_a_at) / RFU VCAN (11755009_s_at) / Fold change /veh VCAN (11755009_s_at) / RFU RHOB (11743442_s_at) / Fold change /veh RHOB (11743442_s_at) / RFU RGS16 (11720943_a_at) / Fold change /veh RGS16 (11720943_a_at) / RFU RGS16 (11720944_at) / Fold change /veh RGS16 (11720944_at) / RFU, VPS4B / Fold change vs veh, VPS4B / RFU, CREB1 / Fold change vs veh, CREB1 / RFU, DNAJC13 / Fold change vs veh, DNAJC13 / RFU, GNAQ / Fold change vs veh, GNAQ / RFU, CDK5R1 / Fold change vs veh, CDK5R1 / RFU, ZRANB3 / Fold change vs veh, ZRANB3 / RFU, CUL4A / Fold change vs veh, CUL4A / RFU, CCNY / Fold change vs veh, CCNY / RFU, UFL1 / Fold change vs veh, UFL1 / RFU, COG3 / Fold change vs veh, COG3 / RFU, DIAPH2 / Fold change vs veh, DIAPH2 / RFU, SKA2 / Fold change vs veh, SKA2 / RFU, AFF3 / Fold change vs veh, AFF3 / RFU, LMF1 / Fold change vs veh, LMF1 / RFU, IPO11 / Fold change vs veh, IPO11 / RFU, DFFB / Fold change vs veh, DFFB / RFU, FOXP1 / Fold change vs veh, FOXP1 / RFU, CARD8 / Fold change vs veh, CARD8 / RFU, STRN3 / Fold change vs veh, STRN3 / RFU, ADK / Fold change vs veh, ADK / RFU, RASSF2 / Fold change vs veh, RASSF2 / RFU, WIPF1 / Fold change vs veh, WIPF1 / RFU, LARP1B / Fold change vs veh, LARP1B / RFU, RASA1 / Fold change vs veh, RASA1 / RFU, RB1 / Fold change vs veh, RB1 / RFU, PPFIA1 / Fold change vs veh, PPFIA1 / RFU, MAT2A / Fold change vs veh, MAT2A / RFU, CCT5 / Fold change vs veh, CCT5 / RFU, WDR92 / Fold change vs veh, WDR92 / RFU, CUX1 / Fold change vs veh, CUX1 / RFU, TTC7A / Fold change vs veh, TTC7A / RFU, TMEM135 / Fold change vs veh, TMEM135 / RFU, DEPTOR / Fold change vs veh, DEPTOR / RFU, CPM / Fold change vs veh, CPM / RFU, DNAJB6 / Fold change vs veh, DNAJB6 / RFU, CACNA2D3 / Fold change vs veh, CACNA2D3 / RFU, DTX4 / Fold change vs veh, DTX4 / RFU, TFCP2 / Fold change vs veh, TFCP2 / RFU, GMCL1 /// GMCL1P1 / Fold change vs veh, GMCL1 /// GMCL1P1 / RFU, AEBP2 / Fold change vs veh, AEBP2 / RFU, SNHG1 /// SNORD22 /// SNORD25 /// SNORD26 /// SNORD27 /// SNORD28 /// SNORD29 /// SNORD31 / Fold change vs veh, SNHG1 /// SNORD22 /// SNORD25 /// SNORD26 /// SNORD27 /// SNORD28 /// SNORD29 /// SNORD31 / Fold change (Aza/veh), C12orf56 (ProbeSet 11735607_a_at) / Fold change (ACY-1035/veh), C12orf56 (ProbeSet 11735607_a_at) / Fold change (Aza/veh), FGFR1OP (ProbeSet 11751329_s_at) / Fold change (ACY-1035/veh), FGFR1OP (ProbeSet 11751329_s_at) / Fold change (Aza/veh), VPS36 (ProbeSet 11739960_a_at) / Fold change (ACY-1035/veh), VPS36 (ProbeSet 11739960_a_at) / RFU SYPL1 (11715823_x_at) / Fold change /veh SYPL1 (11715823_x_at) / RFU IGFBP7 (11715501_s_at) / Fold change /veh IGFBP7 (11715501_s_at) / RFU REEP3 (11722064_at) / Fold change /veh REEP3 (11722064_at) / RFU IGLL1 (11728026_x_at) / Fold change /veh IGLL1 (11728026_x_at): dose or concentration left out as unconfirmed
Settings: MV-4-11 cells, 48 hours

Nc1ncn([C@@H]2O[C@H](CO)[C@@H](O)[C@H]2O)c(=O)n1 [azacitidine] was tested, and the “Fold change /veh A4GNT (11735810_at)” value was 0.90.
